Source: patent US10414760B2, “Cytochrome P450 inhibitors and uses thereof” (ANGION BIOMEDICA CORP., priority 2016, dated 2019)

These compounds were tested against T1, CYP26 (Mus musculus, UniProt O55127) (assay: CYP26 inhibition: substrate depletion assay for ATRA metabolism in mouse microsomes).
T1 construct: tissue Xenotech; host or cells: liver microsomes of ATRA-treated mice
T1 sequence (O55127 1-497): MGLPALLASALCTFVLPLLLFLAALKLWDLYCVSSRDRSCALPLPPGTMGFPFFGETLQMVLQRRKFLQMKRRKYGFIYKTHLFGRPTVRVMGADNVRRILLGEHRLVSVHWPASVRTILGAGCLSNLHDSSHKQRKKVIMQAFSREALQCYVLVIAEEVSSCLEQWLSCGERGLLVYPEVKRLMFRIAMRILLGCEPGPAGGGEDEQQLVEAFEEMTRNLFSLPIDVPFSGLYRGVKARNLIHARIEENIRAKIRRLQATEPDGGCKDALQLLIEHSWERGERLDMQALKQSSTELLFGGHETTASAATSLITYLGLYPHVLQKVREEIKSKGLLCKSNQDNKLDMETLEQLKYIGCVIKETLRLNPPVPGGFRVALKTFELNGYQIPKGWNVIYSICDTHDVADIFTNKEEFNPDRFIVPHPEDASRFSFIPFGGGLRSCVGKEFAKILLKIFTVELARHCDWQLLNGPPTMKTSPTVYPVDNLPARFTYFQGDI
Assay type: biochemical
Method: Serum Testosterone and PSA and Tumor Testosterone Analysis. Tumor tissue obtained from mice will be homogenized in phosphate buffer (pH 7.4, 0.1 M) and homogenates centrifuged at 2000 g for 20 min. Testosterone concentrations in the serum and in the clear tissue homogenate supernatant will be determined with the ELISA kit from R&D Systems (Catalog # KGR010). Serum PSA concentrations will be measured using a PSA ELISA kit with a serum dilution according to the manufacturers instructions. • c. Breast cancer. To test the efficacy of compounds embodied herein against breast cancer, nude mice carrying human breast cancer lines that are estrogen receptor and Aromatase positive will be used. Cells will be grown in vitro and 2 million will be inoculated in Matrigel (50:50 volume ratio of cells to Matrigel). Cells will be distributed by s.c. injection at the right and left flanks or at the orthotopic sitest in 6 to 8 week old athymic nude mice (BALB/c strain) or severe combined immunodeficient mice under anesthesia. Animals will be treated with compound for 4 weeks, at which point animals will be sacrificed and collect blood samples and tumor tissue for the determination of serum and tumor estrogen levels. Tumors will be excised and a portion will be fixed in formalin for subsequent histochemical and immuno-histochemical analysis. The remainder will be snap frozen in liquid nitrogen and stored at −80° C. • 12. CYP26 inhibition activity. A substrate depletion assay for ATRA metabolism in mouse microsomes is used. […] The assay is run in a 100 μL reaction volume and stopped with an equal volume of methanol. […] CYP17 inhibition assay: In vitro assays for CYP17 17α-hydroxylase and C17,20-lyase activity, assays using rat and dog testis microsomes and ELISA kits from commercial vendors for the detection of formed products are employed. Incubation of rat testis microsomes with the substrate progesterone (P4) results, through the CYP17 17α-hydroxylase and C17,20-lyase activities, in a marked production of androstenedione (AD) in a time and enzyme-concentration dependent manner. […] In another control, microsomes isolated from rat livers, which are known to express very little or no CYP17, are shown to be devoid of this activity. Assays are also used that determine the activity of 17α-hydroxylase activity using P4 as a substrate and detecting HOP4 as a product (using dog testis microsomes) and the activity of C17,20-lyase by using HOP4 as a substrate and AD as a product (rat testis microsomes). • 14. CYP19 inhibition assay: For in vitro assays of CYP19 aromatase activity, commercially available CYP19 enzyme preparations (e.g. BD Gentest Supersomes Catalog #456260) and assay kits (e.g. BD Gentest Catalog #459520) are employed according to the manufacturers instructions.
CYP26 inhibition. […] The assay was run in a 100 μL reaction volume and stopped with an equal volume of methanol. […] Other compounds of formula (I) are similarly potent, for example with an IC50 of 1.6 nM.

IC50, < 1000 nM:
CCC(CC)C(c1ccc2nc(-c3cccc(C(=O)O)c3)sc2c1)n1ccnc1 (stereo not shown) [3-(6-(2-Ethyl-1-(1H-imidazol-1-yl)butyl)benzo[d]thiazol-2-yl)benzoic acid]
CCC(C(c1ccc2nc(NCc3cccc(C(=O)O)c3)sc2c1)n1ccnc1)N(C)C (stereo not shown) [Example 7, 3-(((6-(2-(Dimethylamino)-1-(1H-imidazol-1-yl)butyl)benzo[d]thiazol-2-yl)amino)methyl)benzoic acid]
CCC(C(c1ccc2nc(Nc3ccc(C(=O)O)cc3)sc2c1)n1ccnc1)N(C)C (stereo not shown) [Example 17, 4-((6-(2-(Dimethylamino)-1-(1H-imidazol-1-yl)butyl)benzo[d]thiazol-2-yl)amino)benzoic acid]
CCC(C(c1ccc2nc(NCC(C)(C)C(=O)O)sc2c1)n1ccnc1)N(C)C (stereo not shown) [Example 19, 3-((6-(2-(Dimethylamino)-1-(1H-imidazol-1-yl)butyl)benzo[d]thiazol-2-yl)amino)-2,2-dimethylpropanoic acid]
CCC(C(c1ccc2nc(NC(=O)CC(C)(C)C(=O)O)sc2c1)n1ccnc1)N(C)C (stereo not shown) [Example 20, 4-((6-(-2-(dimethylamino)-1-(1H-imidazol-1-yl)butyl)benzo[d]thiazol-2-yl)amino)-2,2-dimethyl-4-oxobutanoic acid]
CCC(C(c1ccc2nc(NC(=O)c3ccc(C(=O)O)cc3)sc2c1)n1ccnc1)N(C)C (stereo not shown) [Example 22, 4-((6-(2-(dimethylamino)-1-(1H-imidazol-1-yl)butyl)benzo[d]thiazol-2-yl)carbamoyl)benzoic acid]
CCC(C(c1ccc2nc(Oc3ccc(C(=O)O)cc3)sc2c1)n1ccnc1)N(C)C (stereo not shown) [Example 24, 4-((6-(2-(Dimethylamino)-1-(1H-imidazol-1-yl)butyl)benzo[d]thiazol-2-yl)oxy)benzoic acid]
CCC(C(c1ccc2nc(-c3ccc(C(=O)OC)cc3)sc2c1)n1ccnc1)N(C)C (stereo not shown) [Example 25, Methyl 4-(6-(2-(dimethylamino)-1-(1H-imidazol-1-yl)butyl)benzo[d]thiazol-2-yl)benzoate]
CCC(C(c1ccc2nc(-c3ccc(C(=O)O)cc3)sc2c1)n1ccnc1)N(C)C (stereo not shown) [Example 26, 4-(6-(2-(Dimethylamino)-1-(1H-imidazol-1-yl)butyl)benzo[d]thiazol-2-yl)benzoic acid]
CCC(CC)C(c1ccc2nc(-c3ccc(C(=O)OC)cc3)sc2c1)n1ccnc1 (stereo not shown) [Example 29, Methyl 4-(6-(2-ethyl-1-(1H-imidazol-1-yl)butyl)benzo[d]thiazol-2-yl)benzoate]
CCC(CC)C(c1ccc2nc(-c3ccc(C(=O)O)cc3)sc2c1)n1ccnc1 (stereo not shown) [Example 30, 4-(6-(2-Ethyl-1-(1H-imidazol-1-yl)butyl)benzo[d]thiazol-2-yl)benzoic acid]
CCC(C(c1ccc2nc(NCc3ccc(C(=O)O)cc3)sc2c1)n1ccnc1)N(C)C (stereo not shown) [Example 35, 4-(((6-(2-(Dimethylamino)-1-(1H-imidazol-1-yl)butyl)benzo[d]thiazol-2-yl)amino)methyl)benzoic acid]
CCC(C(c1ccc2nc(Nc3cccc(C(=O)O)c3)sc2c1)n1ccnc1)N(C)C (stereo not shown) [Example 39, 3-((6-(2-(dimethylamino)-1-(1H-imidazol-1-yl)butyl)benzo[d]thiazol-2-yl)amino)benzoic acid]
CCC(C(c1ccc2nc(NC(=O)c3cccc(C(=O)O)c3)sc2c1)n1ccnc1)N(C)C (stereo not shown) [Example 41, 3-((6-(2-(dimethylamino)-1-(1H-imidazol-1-yl)butyl)benzo[d]thiazol-2-yl)carbamoyl)benzoic acid]
CCC(C(c1ccc2nc(NC(=O)C3(C(=O)O)CCC3)sc2c1)n1ccnc1)N(C)C (stereo not shown) [Example 43, 1-((6-(2-(Dimethylamino)-1-(1H-imidazol-1-yl)butyl)benzo[d]thiazol-2-yl)carbamoyl)cyclobutanecarboxylic acid]
CCC(C(c1ccc2nc(NC(=O)C3(C(=O)O)CCCCC3)sc2c1)n1ccnc1)N(C)C (stereo not shown) [Example 45, 1-((6-(2-(Dimethylamino)-1-(1H-imidazol-1-yl)butyl)benzo[d]thiazol-2-yl)carbamoyl)cyclohexanecarboxylic acid]
CCC(C(c1ccc2nc(NC(=O)C3(C(=O)O)CCCC3)sc2c1)n1ccnc1)N(C)C (stereo not shown) [Example 47, 1-((6-(2-(Dimethylamino)-1-(1H-imidazol-1-yl)butyl)benzo[d]thiazol-2-yl)carbamoyl)cyclopentanecarboxylic acid]
CCC(C(c1ccc2nc(NC(=O)CCC(C)(C)C(=O)O)sc2c1)n1ccnc1)N(C)C (stereo not shown) [Example 49, 5-((6-(-2-(Dimethylamino)-1-(1H-imidazol-1-yl)butyl)benzo[d]thiazol-2-yl)amino)-2,2-dimethyl-5-oxopentanoic acid]
CCC(C(c1ccc2nc(NC(=O)C3CC4CCC3C4)sc2c1)n1ccnc1)N(C)C (stereo not shown) [Example 52, N-(6-(-2-(dimethylamino)-1-(1H-imidazol-1-yl)butyl)benzo[d]thiazol-2-yl)bicyclo[2.2.1]heptane-2-carboxamide]
CCC(C(c1ccc2nc(Oc3cccc(C(=O)O)c3)sc2c1)n1ccnc1)N(C)C (stereo not shown) [Example 54, 3-((6-(2-(Dimethylamino)-1-(1H-imidazol-1-yl)butyl)benzo[d]thiazol-2-yl)oxy)benzoic acid]
CCC(C(c1ccc2nc(-c3cccc(C(=O)O)c3)sc2c1)n1ccnc1)N(C)C (stereo not shown) [Example 56, 3-(6-(2-(Dimethylamino)-1-(1H-imidazol-1-yl)butyl)benzo[d]thiazol-2-yl)benzoic acid]
CCC(C(c1ccc2nc(-c3ccc(C(=O)O)cc3)sc2c1)n1ccnc1)N(C)CC (stereo not shown) [Example 58, 4-(6-(2-(Ethyl(methyl)amino)-1-(1H-imidazol-1-yl)butyl)benzo[d]thiazol-2-yl)benzoic acid]
CCC(C(c1ccc2nc(-c3cccc(C(=O)O)c3)sc2c1)n1ccnc1)N(C)CC (stereo not shown) [Example 60, 3-(6-(2-(Ethyl(methyl)amino)-1-(1H-imidazol-1-yl)butyl)benzo[d]thiazol-2-yl)benzoic acid]
CCC(C(c1ccc2nc(-c3ccc(C(=O)O)c(Cl)c3)sc2c1)n1ccnc1)N(C)C (stereo not shown) [Example 62, 2-Chloro-4-(6-(2-(dimethylamino)-1-(1H-imidazol-1-yl)butyl)benzo[d]thiazol-2-yl)benzoic acid]
CCC(C(c1ccc2nc(-c3ccc(Cl)c(C(=O)O)c3)sc2c1)n1ccnc1)N(C)C (stereo not shown) [Example 64, 2-Chloro-5-(6-(2-(dimethylamino)-1-(1H-imidazol-1-yl)butyl)benzo[d]thiazol-2-yl)benzoic acid]
CCC(C(c1ccc2nc(-c3ccc(F)c(C(=O)O)c3)sc2c1)n1ccnc1)N(C)C (stereo not shown) [Example 66, 5-(6-(2-(Dimethylamino)-1-(1H-imidazol-1-yl)butyl)benzo[d]thiazol-2-yl)-2-fluorobenzoic acid]
CCC(C(c1ccc2nc(-c3cc(F)cc(C(=O)O)c3)sc2c1)n1ccnc1)N(C)C (stereo not shown) [Example 68, 3-(6-(2-(Dimethylamino)-1-(1H-imidazol-1-yl)butyl)benzo[d]thiazol-2-yl)-5-fluorobenzoicacid]
CCC(C(c1ccc2nc(-c3cc(C(=O)O)cc(C(F)(F)F)c3)sc2c1)n1ccnc1)N(C)C (stereo not shown) [Example 70, 3-(6-(2-(Dimethylamino)-1-(1H-imidazol-1-yl)butyl)benzo[d]thiazol-2-yl)-5-(trifluoromethyl)benzoic acid]
